Laboratory results from paper PMC5484114 (Marine Drugs, 2017).
Where a SMILES comes first, the peptide text is derived from it. Bridges are numbered along the chain shown (N, C = ends). Roman numbers before positions name the chains, in order.

Columns and labels:
hα7 nAChR = assay type: cell-based, human
hα4β4 nAChR = assay type: cell-based, human
hα9α10 nAChR = hα9α10 nAChR (Homo sapiens, UniProt Q9GZZ6+Q9UGM1); assay: cell-based; assay type: cell-based
hα3β2 nAChR = assay type: cell-based, human
hα4β2 nAChR = assay type: cell-based, human
hα3β4 nAChR = assay type: cell-based, human
nAChR subtypes = assay type: cell-based, human; rodent

hα9α10 nAChR, sequence (Q9UGM1 26-479 limits assumed): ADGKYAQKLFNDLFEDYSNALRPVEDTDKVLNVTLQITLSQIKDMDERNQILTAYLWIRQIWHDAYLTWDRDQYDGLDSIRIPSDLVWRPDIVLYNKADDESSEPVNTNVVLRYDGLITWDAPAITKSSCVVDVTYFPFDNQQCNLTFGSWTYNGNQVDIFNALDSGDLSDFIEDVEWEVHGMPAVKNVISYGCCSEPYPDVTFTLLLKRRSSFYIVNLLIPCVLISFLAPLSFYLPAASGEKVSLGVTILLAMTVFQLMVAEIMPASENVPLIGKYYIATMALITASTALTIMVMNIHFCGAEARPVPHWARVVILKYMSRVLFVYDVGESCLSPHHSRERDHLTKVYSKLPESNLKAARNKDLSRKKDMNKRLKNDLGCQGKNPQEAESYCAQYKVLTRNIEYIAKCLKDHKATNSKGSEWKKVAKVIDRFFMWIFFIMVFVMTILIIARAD
hα9α10 nAChR, sequence (Q9GZZ6 25-450 limits assumed): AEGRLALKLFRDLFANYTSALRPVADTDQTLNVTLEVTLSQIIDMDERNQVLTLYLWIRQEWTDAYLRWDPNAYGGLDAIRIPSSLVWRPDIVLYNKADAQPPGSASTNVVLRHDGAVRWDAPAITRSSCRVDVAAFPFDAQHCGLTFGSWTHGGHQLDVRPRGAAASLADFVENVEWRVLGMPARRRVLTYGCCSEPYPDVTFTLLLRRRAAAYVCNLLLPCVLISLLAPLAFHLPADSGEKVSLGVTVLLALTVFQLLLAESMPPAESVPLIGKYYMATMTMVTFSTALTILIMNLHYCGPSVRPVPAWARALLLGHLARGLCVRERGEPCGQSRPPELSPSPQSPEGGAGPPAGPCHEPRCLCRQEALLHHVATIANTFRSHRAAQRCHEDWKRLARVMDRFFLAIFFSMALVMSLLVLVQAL

Structure (SMILES): CC(C)C[C@H](NC(=O)[C@H](CO)NC(=O)[C@@H]1CSSC[C@H](NC(=O)[C@@H]2CCCN2C(=O)[C@H](CCCNC(=N)N)NC(=O)[C@H](Cc2c[nH]cn2)NC(=O)[C@@H](NC(=O)[C@@H](N)CC(=O)O)C(C)C)C(=O)N[C@@H](CCC(N)=O)C(=O)N[C@@H](CO)C(=O)N[C@@H](C(C)C)C(=O)N[C@@H](CCCNC(=N)N)C(=O)N2CCC[C@H]2C(=O)NCC(=O)N[C@@H](CCCNC(=N)N)C(=O)N[C@@H](C(C)C)C(=O)N[C@@H](Cc2c[nH]c3ccccc23)C(=O)NCC(=O)N[C@@H](CCCCN)C(=O)N[C@H](C(=O)N[C@@H](CO)C(=O)N[C@@H](CC(C)C)C(=O)O)CSSC[C@H](NC(=O)[C@@H]2CCCN2C(=O)[C@H](CCCNC(=N)N)NC(=O)[C@H](Cc2c[nH]cn2)NC(=O)[C@@H](NC(=O)[C@@H](N)CC(=O)O)C(C)C)C(=O)N[C@@H](CCC(N)=O)C(=O)N[C@@H](CO)C(=O)N[C@@H](C(C)C)C(=O)N[C@@H](CCCNC(=N)N)C(=O)N2CCC[C@H]2C(=O)NCC(=O)N[C@@H](CCCNC(=N)N)C(=O)N[C@@H](C(C)C)C(=O)N[C@@H](Cc2c[nH]c3ccccc23)C(=O)NCC(=O)N[C@@H](CCCCN)C(=O)N1)C(=O)O [NTD] (I: H-DVHRPCQSVRPGRVWGKCSL-OH / II: H-DVHRPCQSVRPGRVWGKCSL-OH; disulfide I:6-II:18, I:18-II:6)
- effect on ACh-evoked currents of hα7 (hα7 nAChR): not markedly affected
- effect on ACh-evoked currents of hα4β4 (hα4β4 nAChR): not markedly affected
- Hill Slope (nH) at hα9α10 (hα9α10 nAChR): −0.9
- reduction of ACh-evoked current amplitude at hα3β2 (hα3β2 nAChR): approximately 50%
- reduction of ACh-evoked current amplitude at hα4β2 (hα4β2 nAChR): approximately 50%
- effect on ACh-evoked currents of hα3β4 (hα3β4 nAChR): not markedly affected
- nAChR subtype preference (nAChR subtypes): prefers β2-containing rather than β4-containing nAChR subtypes

Structure (SMILES): CC(C)[C@@H]1NC(=O)[C@H](CCCNC(=N)N)NC(=O)CNC(=O)[C@@H]2CCCN2C(=O)[C@H](CCCNC(=N)N)NC(=O)[C@H](C(C)C)NC(=O)[C@H](CO)NC(=O)[C@H](CCC(N)=O)NC(=O)[C@@H](N)CSSC[C@@H](C(=O)O)NC(=O)[C@H](CCCCN)NC(=O)CNC(=O)[C@H](Cc2c[nH]c3ccccc23)NC(=O)[C@H](C(C)C)NC(=O)[C@H](CCCNC(=N)N)NC(=O)CNC(=O)[C@@H]2CCCN2C(=O)[C@H](CCCNC(=N)N)NC(=O)[C@H](C(C)C)NC(=O)[C@H](CO)NC(=O)[C@H](CCC(N)=O)NC(=O)[C@@H]2CCCN2C(=O)CNC(=O)[C@@H]2CCCN2C(=O)[C@H](CCCCN)NC(=O)CNC(=O)[C@H](Cc2c[nH]c3ccccc23)NC1=O [cNTD] (H-CQSVRPGRVWGKPGPQSVRPGRVWGKC-OH; disulfide 1-27)
- IC50 (hα9α10 nAChR): 2660 nM
